The subject of this test is L1210 leukemia ip in BDF1 mice, survival T/C. In words: NCI In Vivo Anticancer Drug Screen. Data for tumor model L1210 Leukemia (intraperitoneal) in B6D2F1 (BDF1) mice. The following applies: endpoint: mean survival time, higher = longer survival. In short, it runs like this:
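Transplantable tumor model; survival measured in treated vs vehicle control mice. Value = treated/control.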

Where [1] appears, read: dose: 25.0 mg/kg/injection, schedule: Q04DX003 (ip), vehicle: Klucel (hydroxypropylcellulose) (HPC).
[2] abbreviates: dose: 50.0 mg/kg/injection, schedule: Q04DX003 (ip), vehicle: Klucel (hydroxypropylcellulose) (HPC).
Where [3] appears, read: dose: 100.0 mg/kg/injection, schedule: Q04DX003 (ip), vehicle: Klucel (hydroxypropylcellulose) (HPC).
[4] abbreviates: dose: 100.0 mg/kg/injection, schedule: Q01DX001 (ip), vehicle: saline.
The mark [5] stands for this setting: dose: 200.0 mg/kg/injection, schedule: Q01DX001 (ip), vehicle: saline.
[6] abbreviates: dose: 400.0 mg/kg/injection, schedule: Q01DX001 (ip), vehicle: saline.

Here are results for twelve molecules from PubChem BioAssay AID248 (DTP/NCI, 2004).

Molecules are shown by their SMILES. Where “and” joins values, the source holds several entries; their conditions need not be identical. Equal values may be shown once. Toxic doses and inconclusive results are not listed.

Consider `C[N+](C)(C)c1ncnc2nc[nH]c12`, for which the T/C is 112 % of control (dose: 22.5 mg/kg/injection, schedule: Q01DX Z (ip), vehicle: saline); 112 % of control (dose: 31.0 mg/kg/injection, schedule: Q01DX005 (ip), vehicle: saline); 120 % of control (dose: 31.0 mg/kg/injection, schedule: Q01DX009 (ip), vehicle: saline); 110 % of control (dose: 45.0 mg/kg/injection, schedule: Q01DX Z (ip), vehicle: saline); 110 % of control (dose: 53.0 mg/kg/injection, schedule: Q01DX Z (ip), vehicle: carboxymethylcellulose (CMC)); 110 % of control (dose: 62.0 mg/kg/injection, schedule: Q01DX005 (ip), vehicle: saline). The T/C was 109 % of control (dose: 62.0 mg/kg/injection, schedule: Q01DX009 (oral), vehicle: saline); 109 % of control (dose: 62.0 mg/kg/injection, schedule: Q01DX009 (sc), vehicle: saline); 118 % of control (dose: 80.0 mg/kg/injection, schedule: Q01DX Z (ip), vehicle: carboxymethylcellulose (CMC)); 110 % of control (dose: 100.0 mg/kg/injection, schedule: Q## X008 (ip), vehicle: saline); 115 % of control (dose: 100.0 mg/kg/injection, schedule: Q## X024 (ip), vehicle: saline); 118 % of control (dose: 120.0 mg/kg/injection, schedule: Q01DX Z (ip), vehicle: carboxymethylcellulose (CMC)). The T/C is, setting by setting: (dose: 125.0 mg/kg/injection, schedule: Q01DX001 (ip), vehicle: saline) 96 % of control; (dose: 125.0 mg/kg/injection, schedule: Q01DX001 (oral), vehicle: saline) 116 % of control; (dose: 125.0 mg/kg/injection, schedule: Q01DX001 (sc), vehicle: saline) 106 % of control; (dose: 125.0 mg/kg/injection, schedule: Q01DX005 (ip), vehicle: saline) 124 % of control; (dose: 125.0 mg/kg/injection, schedule: Q01DX009 (sc), vehicle: saline) 118 % of control; (dose: 125.0 mg/kg/injection, schedule: Q## X003 (ip), vehicle: saline) 108 % of control. In addition, the T/C was 162 % of control (dose: 180.0 mg/kg/injection, schedule: Q01DX Z (ip), vehicle: carboxymethylcellulose (CMC)); 109 % of control (dose: 200.0 mg/kg/injection, schedule: Q## X008 (ip), vehicle: saline); 107 % of control (dose: 250.0 mg/kg/injection, schedule: Q01DX001 (ip), vehicle: saline); 110 % of control (dose: 250.0 mg/kg/injection, schedule: Q01DX001 (oral), vehicle: saline); 109 % of control (dose: 250.0 mg/kg/injection, schedule: Q01DX001 (sc), vehicle: saline); 123 % of control (dose: 250.0 mg/kg/injection, schedule: Q01DX009 (sc), vehicle: saline). Besides, the T/C is, setting by setting: (dose: 250.0 mg/kg/injection, schedule: Q## X003 (ip), vehicle: saline) 119 % of control; (dose: 270.0 mg/kg/injection, schedule: Q01DX015 (ip), vehicle: saline) 152 % of control; (dose: 400.0 mg/kg/injection, schedule: Q## X008 (ip), vehicle: saline) 120 % of control; (dose: 500.0 mg/kg/injection, schedule: Q01DX001 (oral), vehicle: saline) 112 % of control; (dose: 800.0 mg/kg/injection, schedule: Q## X024 (ip), vehicle: saline) 122 % of control; (dose: 1000.0 mg/kg/injection, schedule: Q01DX001 (oral), vehicle: saline) 124 % of control.

In the case of `Cc1ccc(NCS(=O)(=O)O)cc1`, the T/C is 106 % of control under setting [1]; 103 % of control under setting [2]; 95 % of control and 96 % of control under setting [3]; 100 % of control (dose: 200.0 mg/kg/injection, schedule: Q04DX003 (ip), vehicle: Klucel (hydroxypropylcellulose) (HPC)); 97 % of control (dose: 400.0 mg/kg/injection, schedule: Q04DX003 (ip), vehicle: Klucel (hydroxypropylcellulose) (HPC)).

On to `CC(CC(=O)O)[Se][Se]C(C)CC(=O)O` (configuration not stated), for which the T/C reads like this: (dose: 100.0 mg/kg/injection, schedule: Q01DX001 (ip), vehicle: Klucel (hydroxypropylcellulose) (HPC)) 108 % of control; (dose: 200.0 mg/kg/injection, schedule: Q01DX001 (ip), vehicle: Klucel (hydroxypropylcellulose) (HPC)) 102 % of control.

Consider `O=C1N/C(=N\OCc2ccccc2Cl)CC(NOCc2ccccc2Cl)N1` (configuration not stated), for which the T/C reads like this: (dose: 100.0 mg/kg/injection, schedule: Q04DX003 (ip), vehicle: saline with Tween-80) 91 % of control; (dose: 200.0 mg/kg/injection, schedule: Q04DX003 (ip), vehicle: saline with Tween-80) 97 % of control; (dose: 400.0 mg/kg/injection, schedule: Q04DX003 (ip), vehicle: saline with Tween-80) 95 % of control.

For `Nc1ccc(Cl)cc1-c1ccccc1`, the T/C (dose: 55.0 mg/kg/injection, schedule: Q01DX Z (ip), vehicle: saline) is 105 % of control and the T/C (dose: 125.0 mg/kg/injection, schedule: Q01DX Z (ip), vehicle: saline) was 104 % of control.

Take `O=C(NC1CCCCC1)N(O)C12CC3CC(CC(C3)C1)C2`: the T/C reads like this: (dose: 100.0 mg/kg/injection, schedule: Q01DX001 (ip), vehicle: saline with Tween-80) 108 % of control; (dose: 200.0 mg/kg/injection, schedule: Q01DX001 (ip), vehicle: saline with Tween-80) 92 % of control; (dose: 400.0 mg/kg/injection, schedule: Q01DX001 (ip), vehicle: saline with Tween-80) 95 % of control.

As to `O=C(CSc1ncc2ccccn12)c1ccccc1`, the T/C (dose: 100.0 mg/kg/injection, schedule: Q04DX002 (ip), vehicle: saline with Tween-80) was 106 % of control; the T/C (dose: 200.0 mg/kg/injection, schedule: Q04DX002 (ip), vehicle: saline with Tween-80) was 92 % of control; the T/C (dose: 400.0 mg/kg/injection, schedule: Q04DX002 (ip), vehicle: saline with Tween-80) was 95 % of control.

For `O=S(=O)(CC12CC1(O)C1CCC2C1)c1ccccc1` (configuration not stated), the T/C runs as follows: (dose: 25.0 mg/kg/injection, schedule: Q01DX009 (ip), vehicle: saline) 104 % of control; (dose: 50.0 mg/kg/injection, schedule: Q01DX009 (ip), vehicle: saline) 104 % of control; under setting [4], 108 % of control; (dose: 100.0 mg/kg/injection, schedule: Q01DX009 (ip), vehicle: saline) 93 % of control; (dose: 100.0 mg/kg/injection, schedule: Q04DX003 (ip), vehicle: saline) 103 % of control; under setting [5], 103 % of control. Besides, the T/C was 100 % of control (dose: 200.0 mg/kg/injection, schedule: Q04DX003 (ip), vehicle: saline) and 107 % of control under setting [6].

In the case of `CC(=O)Oc1cccc(/C=C2/N=C(C)OC2=O)c1`, the T/C by setting is: under setting [1], 108 % of control; under setting [2], 105 % of control; under setting [4], 92 % of control; under setting [3], 97 % of control; under setting [5], 92 % of control; under setting [6], 90 % of control.

Consider `C(=C\C[n+]1ccccc1)/C[n+]1ccccc1`, for which the T/C is 106 % of control (dose: 50.0 mg/kg/injection, schedule: Q01DX001 (ip), vehicle: saline); 112 % of control under setting [4]; 106 % of control under setting [5].

Consider `CCOC(=O)/C(C#N)=C(\C)CCc1ccccc1`, for which the T/C was 104 % of control (dose: 75.0 mg/kg/injection, schedule: Q01DX001 (ip), vehicle: saline); 101 % of control (dose: 150.0 mg/kg/injection, schedule: Q01DX001 (ip), vehicle: saline); 101 % of control (dose: 300.0 mg/kg/injection, schedule: Q01DX001 (ip), vehicle: saline).

For `Cn1cc(F)c(=O)[nH]c1=O`, the T/C runs as follows: (dose: 5.0 mg/kg/injection, schedule: Q01DX Z (ip), vehicle: carboxymethylcellulose (CMC)) 96 % of control; (dose: 10.0 mg/kg/injection, schedule: Q01DX Z (ip), vehicle: carboxymethylcellulose (CMC)) 100 % of control; (dose: 20.0 mg/kg/injection, schedule: Q01DX Z (ip), vehicle: carboxymethylcellulose (CMC)) 113 % of control; (dose: 40.0 mg/kg/injection, schedule: Q01DX Z (ip), vehicle: carboxymethylcellulose (CMC)) 96 % of control.
